# Experimental data reported in US11945812B2, “Annulated 2-amino-3-cyano thiophenes and derivatives for the treatment of cancer” (Boehringer Ingelheim International GmbH, priority 2020, dated 2024).
# Where two headings read alike, the source gives them in different places.
# How the values were obtained:
# Type in all cases: cell-based
# [1] = system: ERK phosphorylation in NCI-H358_Cas9_SOS2; test: ERK phosphorylation assay 2 (AlphaLISA SureFire Ultra p-ERK1/2), SOS2 knock-out; conditions: Homo sapiens, NCI-H358; assay 2 (marked with *); read-out: IC50 H358 pERK
# Description: ERK Phosphorylation Assay
# Materials Used for the Assay;
# [2] = target: Ba/F3 cells bearing a KRAS G12C mutation (Homo sapiens, UniProt P01116, G12C, cells depend on it); test: Ba/F3 cell model proliferation assay (AlamarBlue, 72 h)
# Protocol: Ba/F3 Cell Model Generation and Proliferation Assay
# Plasmids containing KRASG12 mutants were obtained from GeneScript. To generate KRASG12-dependent Ba/F3 models, Ba/F3 cells were transduced with retroviruses containing vectors that harbor KRASG12 isoforms. Platinum-E cells (Cell Biolabs) were used for retrovirus packaging. Retrovirus was added to Ba/F3 cells. To ensure infection, 4 μg/mL polybrene was added and cells were spinfected. […] Cells with an infection efficiency of 10% to 20% were further cultivated and puromycin selection with 1 μg/mL was initiated. As a control, parental Ba/F3 cells were used to show selection status. Selection was considered successful when parental Ba/F3 cells cultures died. To evaluate the transforming potential of KRASG12 mutations, the growth medium was no longer supplemented with IL-3. Ba/F3 cells harboring the empty vector were used as a control. Approximately ten days before conducting the experiments, puromycin was left out.
# All treatments were performed in technical duplicates. The assay is run using a fully automated robotic system. Treated cells were incubated for 72 h at 37° C. with 5% CO2. AlamarBlue™ (ThermoFisher), a viability stain, was added and fluorescence measured in the PerkinElmer Envision HTS Multilabel Reader.
# MiaPaCa-2 cells = test: MiaPaCa-2 CTG proliferation assay (pancreatic cancer); conditions: Homo sapiens, MIA PaCa-2, 120 h; MiaPaCa-2 CTG proliferation, 5 days; read-out: IC50 MiaPACA2
# Protocol: MiaPaCa-2 CTG Proliferation Assay (Pancreatic Cancer)
# MiaPaCa-2 cells (ATCC® CRM-CRL-1420™) were grown in cell culture flasks (175 cm^2) using DMEM medium supplemented with 10% fetal bovine serum. […] Materials used for the assay were CulturPlate-384, White Opaque 384-well microplate, Sterile and Tissue Culture Treated (Perkin Elmer #6007680), DMEM medium and FBS # SH30071.03 (HyClone).
# The proliferation assays started (day1) with seeding cells in flat bottom 384 well microtiter plates in 90 μL DMEM medium supplemented with 10% FBS at a density of 500 cells/well. Any other luminescence compatible plate format is possible. On day 2, 10 μL dilutions of the test compounds covering a concentration range between app. 0, 1 and 10.000 nM were added to the cells. Cells were incubated for 5 days in a humidified, incubator with 5% CO2 at 37° C. On day 7 100 μl of Cell Titer Glow reagent (Cell titer Glo Luminescent Cat. No. G7571, Promega) were added to each well and incubated for additional 10 min at room temperature (with agitation). Luminescence was measured on a Wallac Victor using standard luminescence read out. IC50 values were calculated using standard Levenburg Marquard algorithms (GraphPad Prism).
# NCI-H358 cells = test: NCI-H358 CTG proliferation assay (120 h) (NSCLC); conditions: Homo sapiens, read-out: IC50 NCl-H358
# Protocol: NCI-H358 CTG Proliferation Assay (120 h) (NSCLC)
# NCI-H358 cells (ATCC No. CRL-5807) were dispensed into white bottom opaque 96 well plates (Perkin Elmer cat no. 5680) at a density of 2000 cells per well in 100 μL RPMI-1640 ATCC-Formulation (Gibco # A10491)+10% FCS. Cells were incubated overnight at 37° C. in a humidified tissue culture incubator at 5% CO2. Compounds (10 mM stock in DMSO) were added at logarithmic dose series using the HP Digital Dispenser D300 (Tecan), normalizing for added DMSO. For the TO time point measurement, untreated cells were analyzed at the time of compound addition. Plates were incubated for 120 hours, and cell viability was measured using CellTiter-Glo luminescent cell viability reagent (Promega product code G7570). Viability (stated as percent of control) is defined as relative luminescence units RLU of each well divided by the RLU of cells in DMSO controls. IC50 values were determined from viability measurements by non-linear regression using a four parameter model.
# [3] = Ba/F3 KRAS G12C cells, 72 h, 10% FCS, uncorrected, read-out: IC50 Ba/F3 KRASG12C
# [4] = corrected by plasma protein binding in 10% FCS (fraction unbound), read-out: IC50 Ba/F3 KRASG12C (corrected)
# Ba/F3 cells bearing a KRAS G12C mutation, sequence (P01116 whole entry G12C): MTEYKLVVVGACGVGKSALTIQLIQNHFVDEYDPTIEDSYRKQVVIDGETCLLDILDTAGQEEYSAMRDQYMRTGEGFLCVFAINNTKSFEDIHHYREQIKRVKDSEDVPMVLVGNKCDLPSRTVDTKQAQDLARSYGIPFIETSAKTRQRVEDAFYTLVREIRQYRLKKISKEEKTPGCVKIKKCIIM
IC50 [1] [nM],"GI50 [2, 3] [nM]","GI50 [2, 4] [nM]",IC50 (MiaPaCa-2 cells) [nM],IC50 (NCI-H358 cells) [nM],Structure (SMILES)
2.4,1.7,0.09,20.1,0.55,C=CC(=O)N1[C@@H](C)CN(c2cc(O[C@@H](C)[C@@H]3CCCN3C)nc(-c3cc([C@@]4(C)CCCc5sc(N)c(C#N)c54)on3)n2)C[C@@H]1C [Ib-4]
6.7,3.8,0.22,28,9.68,C=CC(=O)N1CCN(c2cc(O[C@@H](C)[C@@H]3CCCN3C)nc(-c3cc([C@@]4(C)CCCc5sc(N)c(C#N)c54)on3)n2)CC12CC2 [Ib-5]
12.6,16,1.06,36,19.1,COC/C=C/C(=O)N1CCN(c2cc(O[C@@H](C)[C@@H]3CCCN3C)nc(-c3cc([C@@]4(C)CCCc5sc(N)c(C#N)c54)on3)n2)[C@H](C)C1 [Ib-14]
12.3,5.5,0.6,123,24.3,C=CC(=O)N1CCN(c2cc(O[C@@H](C)[C@@H]3CCCN3C)nc(-c3cc([C@@]4(C)CCCc5sc(N)c(C#N)c54)no3)n2)CC12CC2 [Ic-3]
13.1,6.7,0.99,47.9,15.7,C=CC(=O)N1[C@H](C)CN(c2cc(O[C@@H](C)[C@@H]3CCCN3C)nc(-c3cc([C@@]4(C)CCCc5sc(N)c(C#N)c54)no3)n2)C[C@@H]1C [Ic-5]
46.2,87,22.5,332,169,COC/C=C/C(=O)N1CCN(c2cc(O[C@@H](C)[C@@H]3CCCN3C)nc(-c3cc(C4(C)CCCc5sc(N)c(C#N)c54)no3)n2)CC1 (stereo partly drawn) [Ic-9]
0.7,0.4,0.19,2.25,0.44,C=CC(=O)N1CCN(c2cc(O[C@@H](C)[C@@H]3CCCN3C)nc(-c3cc([C@@]4(C)CCCc5sc(N)c(C#N)c54)sn3)n2)CC1 [Id-1]
5.4,2,0.87,21.3,2.57,C=CC(=O)N1[C@H](C)CN(c2cc(O[C@@H](C)[C@@H]3CCCN3C)nc(-c3cc([C@@]4(C)CCCc5sc(N)c(C#N)c54)sn3)n2)C[C@@H]1C [Id-2]

# More lines, now with the values behind:
Structure (SMILES),IC50 [1] [nM],"GI50 [2, 3] [nM]","GI50 [2, 4] [nM]",IC50 (MiaPaCa-2 cells) [nM],IC50 (NCI-H358 cells) [nM]
C=CC(=O)N1CCN(c2cc(O[C@@H](C)[C@@H]3CCCN3C)nc(-c3cc([C@@]4(C)CCCc5sc(N)c(C#N)c54)on3)n2)[C@H](C)C1 [Ib-1],1.7,1.8,0.14,22.6,1.87
C=CC(=O)N1CCN(c2cc(O[C@@H](C)[C@@H]3CCCN3C)nc(-c3cc(C4(C)CCCc5sc(N)c(C#N)c54)on3)n2)CC1 (stereo partly drawn) [Ib-6],2,1.6,0.27,9,1.67
C=C(F)C(=O)N1CCN(c2cc(O[C@@H](C)[C@@H]3CCCN3C)nc(-c3cc([C@@]4(C)CCCc5sc(N)c(C#N)c54)on3)n2)[C@H](C)C1 [Ib-10],32.8,13.1,0.83,56.8,40.6
C=C(F)C(=O)N1[C@@H](C)CN(c2cc(O[C@@H](C)[C@@H]3CCCN3C)nc(-c3cc([C@@]4(C)CCCc5sc(N)c(C#N)c54)on3)n2)C[C@@H]1C [Ib-11],44.4,12.6,0.57,105,34.6
C=CC(=O)N1[C@@H](C)CN(c2cc(O[C@@H](C)[C@@H]3CCCN3C)nc(-c3cc([C@@]4(C)CCCc5sc(N)c(C#N)c54)no3)n2)C[C@@H]1C [Ic-4],3.4,1.8,0.15,6.87,2.49
C=CC(=O)N1CCC(Oc2cc(N3CCN(C)C[C@@H]3C)nc(-c3cc(C4(C)CCCc5sc(N)c(C#N)c54)no3)n2)CC1 (stereo partly drawn) [Ic-7],56.8,35.3,8.9,332,76.8
C=C(F)C(=O)N1[C@@H](C)CN(c2cc(O[C@@H](C)[C@@H]3CCCN3C)nc(-c3cc([C@@]4(C)CCCc5sc(N)c(C#N)c54)no3)n2)C[C@@H]1C [Ic-8],134,35.6,2.78,396,93.5
C=CC(=O)N1[C@@H](C)CN(c2cc(O[C@@H](C)[C@@H]3CCCN3C)nc(-c3cc([C@@]4(C)CCCc5sc(N)c(C#N)c54)sn3)n2)C[C@@H]1C [Id-4],2.2,1.3,0.48,15.3,1.09
C=CC(=O)N1CCN(c2cc(O[C@@H](C)[C@@H]3CCCN3C)nc(-c3cc([C@@]4(C)CCCc5sc(N)c(C#N)c54)sn3)n2)CC12CC2 [Id-5],3.1,3.2,1.08,26.9,5.98
C=CC(=O)N1CCC(Oc2cc(O[C@@H](C)[C@@H]3CCCN3C)nc(-c3cc([C@@]4(C)CCCc5sc(N)c(C#N)c54)sn3)n2)CC1 [Id-6],1.1,0.2,0.1,13.8,0.93
